Data on 29 compounds can be found in patent US5834521A, “Substituted dibenz (A F)azulenes and methods of preparation” (Ortho Pharmaceutical Corporation, priority 1996, dated 1998).

As usually defined, the IC50 is the concentration that gives 50% inhibition.

One assay has as its target T1, Progestin Receptor (Oryctolagus cuniculus, UniProt P06186).
T1 construct: The high speed supernatant fraction was used as the receptor preparation; from tissue; host or cells: uterus of New Zealand rabbits, 200,000×g supernatant (cytosol)
T1 sequence (P06186 1-930): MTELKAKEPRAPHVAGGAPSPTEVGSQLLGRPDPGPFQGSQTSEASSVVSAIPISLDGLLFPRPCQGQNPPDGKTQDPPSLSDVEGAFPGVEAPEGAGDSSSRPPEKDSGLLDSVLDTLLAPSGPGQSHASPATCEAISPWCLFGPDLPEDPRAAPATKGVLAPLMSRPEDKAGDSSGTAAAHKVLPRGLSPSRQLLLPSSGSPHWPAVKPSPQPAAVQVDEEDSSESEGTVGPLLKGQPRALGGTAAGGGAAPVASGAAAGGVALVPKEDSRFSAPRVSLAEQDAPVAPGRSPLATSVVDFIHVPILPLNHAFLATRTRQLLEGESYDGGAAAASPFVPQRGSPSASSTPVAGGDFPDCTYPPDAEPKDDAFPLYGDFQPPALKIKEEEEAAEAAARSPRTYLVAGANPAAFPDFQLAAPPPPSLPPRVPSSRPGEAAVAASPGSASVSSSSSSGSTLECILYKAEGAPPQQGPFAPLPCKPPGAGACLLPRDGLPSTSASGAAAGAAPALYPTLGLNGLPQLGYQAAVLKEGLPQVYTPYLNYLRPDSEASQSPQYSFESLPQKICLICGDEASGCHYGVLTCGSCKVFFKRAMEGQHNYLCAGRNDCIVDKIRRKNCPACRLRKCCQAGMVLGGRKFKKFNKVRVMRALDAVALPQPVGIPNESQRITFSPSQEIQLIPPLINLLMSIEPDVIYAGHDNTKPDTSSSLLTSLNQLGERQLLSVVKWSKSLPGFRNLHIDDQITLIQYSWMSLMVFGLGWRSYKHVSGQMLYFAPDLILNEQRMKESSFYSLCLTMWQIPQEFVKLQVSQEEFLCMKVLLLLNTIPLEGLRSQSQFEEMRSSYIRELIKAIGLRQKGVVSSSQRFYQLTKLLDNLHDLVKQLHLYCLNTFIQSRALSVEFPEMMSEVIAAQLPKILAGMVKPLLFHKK
Briefly: Progestin Receptor Binding (competitive binding, 3H-promegestone, rabbit uterus receptor preparation). Set-up: species or system New Zealand rabbits. As to conditions: 3H-promegestone displacement, 4° C., 18 h. The protocol:
Progestin Receptor Binding
The procedure used was essentially that of J. L. McGuire, C.
Uteri from New Zealand rabbits (1.5 to 2.5 kg) were placed in a cold buffer A (0.01 mol Tris-HCl, pH 8.0, 0.001 mol EDTA, 0.25 mol sucrose). The uteri were minced, washed and homogenized in cold buffer A. The homogenate (2 g wet tissue/mL buffer) was centrifuged at 200,000×g for 1 h at 4° C. The high speed supernatant fraction was used as the receptor preparation.
A competitive binding assay was performed by mixing 3H-promegestone with the receptor preparation and adding a known amount of unlabeled compound. This mixture was incubated at 4° C. for 18 h. The compounds bound to the receptor were separated from those which were free in solution using dextran coated charcoal and the amount of isotope bound to the receptor was determined by scintillation counting. The extent of the compound's interaction with the receptor is measured as the percent reduction in the total isotope bound caused by the unlabeled test compound as compared to the control levels. The receptor screen consists of measuring the reduction in the total isotope bound caused by the unlabeled test compound at […] final concentrations.

Assay [1] relates to endometrial proliferation. In words: Assay to Determine Effect of Compound on Uterine Proliferation (Clauberg Test). The class given is in vivo, immature female white rabbits. The conditions noted are these: 40 mg/kg subcutaneously; scale 0 (no response)-4 (maximum response); estradiol-primed immature rabbits, daily for five days. How it is done:
Assay to Determine Effect of Compound on Uterine Proliferation
The procedure used was essentially that of M. K. McPhail, J. Physiology, 83, 145 (1934). Groups of immature female white rabbits (750-950 g) were primed with a daily subcutaneous injection, for 6 days, with 5 micrograms of 17β-estradiol in 0.2 ml of sesame oil. Starting on the 7th day, they received the test compound daily for five days in the appropriate vehicle. The rabbits were sacrificed approximately 24 hours after the last administration, and the uteri were excised, cleaned and weighed. Portions of both uterine horns were fixed in 10% neutral formalin, sectioned at […] and stained with hematoxylin and eosin. Progestational activity was assessed as in the McGinty Test. The evaluation for endometrial proliferation was made according to a McPhail Index. Each slide was graded for each rabbit on a 0 (no response)-4 (maximum response) scale.

The subject of assay [2] is T47D human breast carcinoma cells. In words: Assay to Demonstrate Ability to Increase Breast Cell Proliferation ([3H]-thymidine incorporation). The class given is cell-based. The conditions noted are these: at the concentration of the same table line, control level set at 100%. The protocol: This assay is used to measure the sex steroid effects of compounds. The activity of compounds in this assay is an indication of their potential use as replacements for naturally occuring hormones in individuals with sex hormone deficiencies.
T47D human breast carcinoma cells are grown in 96-well plates in phenol-red free nutrient media at 37° C. for 48 hours. Conditioned media is removed and replaced with fresh media containing test compounds dissolved in DMSO (0.1% final concentration) and the cells are incubated for an additional 18-20 hours at 37° C. [^3 H]-thymidine is added to each well and allowed to incorporate into DNA for 4 hours. Unlabeled thymidine is then added to terminate the reaction, and the cultures are then washed, trypsinized and harvested. The amount of [^3 H]-thymidineincorporated into DNA is determined by liquid scintillation. Data for each well are expressed as a percent above control level, which is set at 100%. The concentration at which maximal deviation from control is found and the magnitude of that percent deviation is reported. Table T lists the data for some of the compounds of this invention.
A general note: Incorporation of labelled thymidine or its analogues reports DNA synthesis.

Take `CCC[C@]12Cc3ccccc3C1=C[C@@H](C)c1ccc(OC)cc1C2` (relative stereo) [Compound 38]: the IC50 at Progestin Receptor stood at 25 nM. Also, the “McPhail Index” value in assay [1] was 4. Further, the “% control (magnitude of maximal deviation from control)” value in assay [2] was determined as 189%. Compound `CCC[C@]12Cc3ccccc3C1=C[C@@H](C)c1ccc(N)cc1C2` (relative stereo) [Compound 85] came in with a 50% inhibitory concentration (IC50) at Progestin Receptor of 19 nM. Besides, in assay [2], the “% control (magnitude of maximal deviation from control)” value is given as 215%. The like results for `CCCC12Cc3cc(OC)ccc3CC=C1c1ccccc1C2` (stereo not shown) [Compound 27] were, in that order, 27 nM and 224%. The compound `COc1ccc2c(c1)CC1(C)Cc3cc(F)ccc3C1=CC2C` (stereo not shown) [Compound 30, 2-Fluoro-6,11,11a,12-tetrahydro-9-methoxy-6,11a-dimethyldibenz[a,f]azulene] displayed an IC50 on Progestin Receptor of 6 nM. Moreover, in assay [2], the “% control (magnitude of maximal deviation from control)” value came out at 204%. For `CCC12Cc3cc(OC)ccc3CC=C1c1ccccc1C2` (stereo not shown) [Compound 43], the IC50 on Progestin Receptor came to 57 nM. In addition, the “% control (magnitude of maximal deviation from control)” value in assay [2] was 151%. The like results for `COc1ccc2c(c1)CC1(C)Cc3cc(F)ccc3C1C(O)C2C` (stereo not shown) [Compound 45] were, in that order, 115 nM and 191%.

The compound `CCC12Cc3ccccc3C(C)CC1c1ccccc1C2` (stereo not shown) [Compound 53] displayed a concentration for half-maximal inhibition (IC50) at Progestin Receptor of 57 nM. Further, the “% control (magnitude of maximal deviation from control)” value in assay [2] came out at 50%. The like results for `CC1CC2c3ccc(F)cc3CC2(C)Cc2cc(Oc3nnnn3-c3ccccc3)ccc21` (stereo not shown) [Compound 63, 6,11a-Dimethyl-2-fluoro-9-(1-phenyl-5-tetrazolyl)-oxy-4b,5,6,11,11a,12-hexahydrodibenz[a,f]azulene] were, in that order, 55 nM and 94%. On Progestin Receptor, `CC1CC2c3ccc(F)cc3CC2(C)Cc2ccccc21` (stereo not shown) [Compound 69, 6,11a-Dimethyl-2-fluoro-4b,5,6,11,11a,12-hexahydrodibenz[a,f]azulene] returned an IC50 of 37 nM. At Progestin Receptor, `Cc1ccc2c(c1)CC1(C)Cc3ccccc3C1=CC2` (stereo not shown) [Compound 70] yielded an IC50 of 42 nM. Besides, in assay [2], the “% control (magnitude of maximal deviation from control)” value is recorded as 173%. `COc1ccc2c(c1)CC1(C)Cc3cc(OC)ccc3C1C(=O)C2` (stereo not shown) [Compound 75] had an IC50 at Progestin Receptor of 555 nM. On to `COc1ccc2c(c1)CC1(C)Cc3cc(OC)ccc3C1C(O)C2C` (stereo not shown) [Compound 78], for which, in assay [2], the “% control (magnitude of maximal deviation from control)” value amounted to 112%. On Progestin Receptor, `COc1cc2c(cc1[N+](=O)[O-])C(C)C(O[N+](=O)[O-])C1c3ccccc3CC1(C)C2` (stereo not shown) [Compound 81, 5-(6,11a,-Dimethyl-9-methoxy-8-nitro-4b,5,6,11,11a,12-hexahydro)dibenz[a,f]azulenyl nitrate ester] had an IC50 of 82 nM. The “% control (magnitude of maximal deviation from control)” value in assay [2] came to 56%.

As to `COc1ccc2c(c1[N+](=O)[O-])CC1(C)Cc3ccccc3C1C(O[N+](=O)[O-])C2C` (stereo not shown) [Compound 82, 5-(6,11a-Dimethyl-9-methoxy-10-nitro-4b-5,6,11,11a,12-hexahydro)dibenz[a,f]azulenyl nitrate ester], the IC50 on Progestin Receptor is 99 nM.

For the compound `CC(=O)Nc1ccc2c(c1)CC1(C)Cc3ccccc3C1=CC2C` (stereo not shown) [Compound 83, 9-Acetamido-6,11,11a,12-tetrahydro-6,11a-dimethyldibenz[a,f]azulene], the IC50 at Progestin Receptor was 1970 nM. As to `CC1CC2c3ccccc3CC2(C)Cc2cc(F)ccc21` (stereo not shown) [Compound 88, 6,11a-Dimethyl-9-fluoro-4b,5,6,11,11a,12-hexahydrodibenz[a,f]azulene], the IC50 at Progestin Receptor is 34 nM. In assay [2], the “% control (magnitude of maximal deviation from control)” value stood at 187%. Turning to `CC1CC2c3ccccc3CC2(C)Cc2cc(N)ccc21` (stereo not shown) [Compound 89, 9-Amino-6,11a-dimethyl-4b,5,6,11,11a,12-hexahydrodibenz[a,f]azulene], the IC50 on Progestin Receptor was 137 nM. For the compound `CC(=O)Nc1cc2c(cc1[N+](=O)[O-])C(C)CC1c3ccccc3CC1(C)C2` (stereo not shown) [Compound 91], the IC50 on Progestin Receptor worked out at 115 nM. As to `CC(=O)Nc1ccc2c(c1)CC1(C)Cc3ccccc3C1=CC2` (stereo not shown) [Compound 95], on Progestin Receptor, the IC50 came out at 1770 nM. The compound `CC12Cc3ccccc3C1CCc1c(N)cccc1C2` (stereo not shown) [Compound 96] yielded an IC50 on Progestin Receptor of 34 nM. Same read-out and setting: next, `CC12Cc3ccccc3C1CCc1c(F)cccc1C2` (stereo not shown) [Compound 98]: 60 nM; `CC1CC2c3ccccc3CC2(C)Cc2c1cc([N+](=O)[O-])c(O)c2[N+](=O)[O-]` (stereo not shown) [Compound 101, 4b,5,6,11,11a,12-Hexahydro-9-hydroxy-6,11a-dimethyl-8,10-dinitrodibenz[a,f]azulene]: 621 nM. With `COc1cc2c(cc1[N+](=O)[O-])C(C)CC1c3ccccc3CC1(C)C2` (stereo not shown) [Compound 102, 4b,5,6,11,11a,12-Hexahydro-9-methoxy-6,11a-dimethyl-8-nitro-dibenz[a,f]azulene], at Progestin Receptor, the IC50 is 1470 nM.

Take `C=C1C=C2c3ccccc3CC2(C)Cc2cc(OC)ccc21` (stereo not shown) [Compound 105, 6,11,11a,12-Tetrahydro-6-methenyl-9-methoxy-11a-methyldibenz[a,f]azulene]: at Progestin Receptor, the IC50 was found to be 676 nM. Same read-out and setting: for `COc1ccc2c(c1)CC1(C)Cc3ccccc3C1=CC2C` (stereo not shown) [Compound 106, 6,11,11a,12-Tetrahydro-9-methoxy-6,11a-dimethyldibenz[a,f]-azulene] the value was 105 nM; for `COc1ccc2c(c1)CC1(C)Cc3ccccc3C1CC2C` (stereo not shown) [Compound 107, 4b,5,6,11,11a,12-Hexahydro-9-methoxy-6,11a-dimethyldibenz-[a,f]azulene], 678 nM.

Turning to `CC(=O)Oc1cccc2c1CCC1c3ccccc3CC1(C)C2` (stereo not shown) [Compound 108], the IC50 at Progestin Receptor stood at 29 nM. In the case of `CC(=O)Oc1cccc2c1CC=C1c3ccc(F)cc3CC1(C)C2` (stereo not shown) [Compound 113], on Progestin Receptor, the IC50 was found to be 6 nM. In addition, the “% control (magnitude of maximal deviation from control)” value in assay [2] is given as 470%. The like results for `COc1ccc2c(c1)CC1(C)Cc3cccc(OC(C)=O)c3CC=C21` (stereo not shown) [Compound 117] were, in that order, 93 nM and 160%.
